How the values were obtained:
[1] = biological target: FimHFL (full length FimH) (Escherichia coli, UniProt P08191); test: competitive fluorescence polarization assay; type: binding
[2] = ligand solubility in assay buffer; type: physicochemical; conditions: for solubility: assay buffer with 5% or 10% DMSO; for highest achievable ligand concentration: assay buffer, final DMSO concentration 10%
[3] = biological target: T1, FimHLD (isolated lectin domain of FimH) (Escherichia coli, UniProt P08191); test: competitive fluorescence polarization assay; type: binding; conditions: for factor of affinity improvement from 1: aglycone optimization
T1 sequence (P08191 22-179): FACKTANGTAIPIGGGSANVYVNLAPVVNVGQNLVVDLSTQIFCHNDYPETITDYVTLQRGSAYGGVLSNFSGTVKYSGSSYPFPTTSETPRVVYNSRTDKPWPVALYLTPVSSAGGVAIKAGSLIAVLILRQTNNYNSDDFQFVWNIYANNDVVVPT

FimHLD = FimHLD (Escherichia coli, UniProt P08191); test: isothermal titration calorimetry; type: binding; conditions: ITC KD versus FPA KD
Chain of FimHLD (P08191 22-179): as above

[4] = biological target: T1, FimHLD (isolated lectin domain of FimH); conditions: read-out: KD FimHLD; competitive FPA; mannosides; ref [18] and [19]; cited from earlier work

Chain of FimHFL (full length FimH) (P08191 22-300, other chains not shown): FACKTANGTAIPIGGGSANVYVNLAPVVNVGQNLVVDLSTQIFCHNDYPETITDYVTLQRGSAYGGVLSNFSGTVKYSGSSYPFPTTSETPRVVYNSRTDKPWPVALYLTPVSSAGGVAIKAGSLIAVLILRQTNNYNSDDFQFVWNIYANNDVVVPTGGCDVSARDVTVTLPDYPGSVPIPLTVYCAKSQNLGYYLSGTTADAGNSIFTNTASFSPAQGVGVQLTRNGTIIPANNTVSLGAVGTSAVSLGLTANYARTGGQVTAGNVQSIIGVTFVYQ

N#Cc1ccc(-c2ccc(CO[C@H]3CO[C@H](CO)[C@@H](O)[C@H](O)[C@@H]3O)cc2)cc1 [7a, 2-O-(4-[4-cyanophenyl]benzyl)-1,6-anhydro-D-glycero-D-galactitol]
increase in binding affinity to FimHFL ([1]; para-cyano group on outer aromatic ring versus unsubstituted 7c): approximately 2 fold
solubility [2]: insufficient solubility

N#Cc1ccc(-c2ccc(O[C@H]3CO[C@H](CO)[C@@H](O)[C@H](O)[C@@H]3O)c(Cl)c2)cc1 [8a, 2-O-[4-(4’-cyanophenyl)-2-chlorophenyl]-1,6-anhydro-D-glycero-D-galactitol]
factor of affinity gain by ortho-chloro modification ([1]; FimHFL, FPA, versus 6): 6
factor of affinity improvement compared to 6 ([3]; FPA, ortho-chloro modification): 2.6
solubility [2]: low solubility
highest achievable ligand concentration [2]: ≤ 500 µM

OC[C@H]1OC[C@H](Oc2ccc(-c3ccccc3)cc2Cl)[C@@H](O)[C@@H](O)[C@@H]1O [8c, 2-O-[4-phenyl-2-chlorophenyl]-1,6-anhydro-D-glycero-D-galactitol]
factor of affinity improvement from 1 ([3]; FPA): 32
solubility [2]: low solubility
highest achievable ligand concentration [2]: ≤ 500 µM

N#Cc1ccc(-c2ccc(CO[C@H]3CO[C@H](CO)[C@@H](O)[C@H](O)[C@@H]3O)c(Cl)c2)cc1 [9a, 2-O-(2-chloro-4-[4-cyanophenyl]benzyl)-1,6-anhydro-D-glycero-D-galactitol]
factor of affinity improvement from 1 ([3]; FPA): 1.5

OC[C@H]1OC[C@H](OCc2ccccc2)[C@@H](O)[C@@H](O)[C@@H]1O [compound 4, 2-O-benzyl-1,6-anhydro-D-glycero-D-galactitol]
factor of loss in binding affinity compared to phenylpropyl analog 5 ([3]; FPA): 10

N#Cc1ccc(-c2ccc(O[C@H]3CO[C@H](CO)[C@@H](O)[C@H](O)[C@@H]3O)cc2)cc1 [compound 6, 2-O-(4-[4-cyanophenyl]phenyl)-1,6-anhydro-D-glycero-D-galactitol]
factor of affinity increase compared to 7a ([3]; FPA): 6
ITC binding affinity lower than recorded in the FPA assay (FimHLD): approx. 3 fold
solubility [2]: low solubility
highest achievable ligand concentration [2]: ≤ 500 µM

N#Cc1ccc(-c2ccc(O[C@H]3O[C@H](CO)[C@@H](O)[C@H](O)[C@@H]3O)cc2)cc1 [compound 27]
Kd [4]: 2 nM

NC(=O)c1ccc(-c2ccc(O[C@H]3O[C@H](CO)[C@@H](O)[C@H](O)[C@@H]3O)cc2)cc1 [compound 28]
Kd [4]: 2.8 nM

N#Cc1ccc(-c2ccc(O[C@H]3O[C@H](CO)[C@@H](O)[C@H](O)[C@@H]3O)c(Cl)c2)cc1 [compound 30, reference compound]
factor of affinity improvement comparing 2 to 30 ([3]; mannoside ligands, from literature KD values): 56.6
